Consider one compound from patent US20230330059A1, “3-PHENYL-2H-CHROMENE DERIVATIVE AND PHARMACEUTICAL COMPOSITION FOR PREVENTING OR TREATING ALZHEIMER'S, CONTAINING SAME” (NEUROBIONET, INC., priority 2020, published 2023).

In test [1] the test system is HEK293 cells overexpressing the dementia gene PSEN1. The test is described as follows: MTT cytotoxicity in HEK293 cells overexpressing PSEN1. The test is classed as cell-based. The conditions noted are these: PSEN1 gene-overexpressing HEK293 cell line, 1, 5 and 10 µM, 24 hours, compared to the normal cells; FIG. 16. As to the method:
HEK293 cells and the HEK293 cells overexpressing the dementia gene PSEN1 were seeded at a density of 2x10^5 cells/well into 96-well plates containing a DMEM medium and stabilized overnight, following by treating the cells with various concentrations (1, 5, and 10 µM) of the sample (SPA1413) for 24 hours. After removal of the culture medium, a 0.5 mg/ml MTT solution was added in an amount of 100 µl to each well and incubated at 37° C. for at least one hour in an incubator. The MTT was removed and 200 µl of DMSO was added to each well to dissolve the formazan. Absorbance was read at 540 nm on an ELISA reader to determine whether or the sample was toxic to the cells.

The subject of another test is 5xFAD mice. As to the kind of experiment: Y-maze test. The test is classed as in vivo, mouse. The conditions noted are these: 10 mg/kg orally once a day for 1 month, vs 5xFAD-saline group, FIG. 21. As to the method:
The experiment was conducted with 5X-FAD transgenic mice having Alzheimer’s disease introduced therein. The 5X FAD mouse is an animal model of Alzheimer’s disease with all the human AD-linked mutations: Swedish (K670N/ […]), Florida (1716V) and London (V7171) in APP (695) and M146L in Presenilin 1
5xFAD mice were purchased from Jackson Lab and bred in and in through mating with C57B16/SJL F1 females, based on the information provided by the supplier. Through genotyping, the mice were divided into groups of 7-9 members, including normal groups (WT) and genetically modified groups (5xFAD): 4.5-month-old 5xFAD mice (Tg) and age-matched controls (WT). To the WT or Tg groups, a vehicle or SPA1413 was orally administered at a dose of 10 mg/kg once a day for 1 month. To test whether SPA1413 has a therapeutic effect on Alzheimer’s disease, the mice in 5 groups (WT-vehicle; WT-SPA1413 5xFAD-vehicle; 5xFAD-SPA1413; and 5xFAD-donepezil) were evaluated for cognitive ability.
Memory impairment was evaluated using the Y-shaped maze test. For the Y-shaped maze test, a Y-shaped arm was installed in a water tank. […] After a random number was assigned to each arm, the arm number in which the animal entered was recorded. Memory was assessed by the animal’s ability to remember the route it had taken and to try to navigate the new route.

Test [2] has as its system PSEN1 gene expression in PSEN1-overexpressed HEK293 cells. As to the kind of experiment: Inhibition of dementia gene PSEN1 expression (qRT-PCR). In kind it is cell-based. The conditions noted are these: 0.1 and 1 µM, 24 hours, FIG. 17. As to the method: HEK293 cells and PSEN1-overexpressed HEK293 cells were seeded at a density of 1x10^6 cells/well into 6-well plates containing a DMEM medium and stabilized overnight, following by treating the cells with or without various concentrations (0.1 and 1 µM) of the sample (SPA1413) for 24 hours. Thereafter, RNA was extracted from the cells, using TRIzol reagent. Reverse transcription was performed using the GoScript™ reverse transcription system according to the manufacturer’s instructions. A qRT-PCR reaction was performed in a volume of 20 µl using the standard SYBR Green PCR kit and Roche Light® Instrument according to the standard protocol. Relative gene expression levels were calculated by the 2^-ΔΔCt method.

The subject of test [3] is MHC II-positive microglia in cortex and hippocampus of 5xFAD mice. As to the kind of experiment: MHC II-positive activated microglia in brain tissue. The test is classed as in vivo, mouse. The conditions noted are these: 10 mg/kg, FIGS. 26 and 27.

Turning to `Oc1ccc(C2=Cc3ccc(O)cc3OC2)cc1` [SPA1413, 3-(4-Hydroxyphenyl)-2H-chromen-7-ol], the “cell viability (MTT)” value in test [1] was “increase in cell viability”. Besides, the total arm entries entry in the test with 5xFAD mice is recorded as “no significant difference”. Further, the PSEN1 gene expression result in test [2] is recorded as “inhibited the upregulated expression of PSEN1 gene”. In test [3], the “number of activated microglia showing a positive MHC II reaction” value is recorded as “significantly decrease”.
